Among the data in US12570673B2, “c-Myc protein inhibitor, and preparation method therefor and use thereof” (SUZHOU KINTOR PHARMACEUTICALS, INC., priority 2019, dated 2026) are IC50 values, retold here.

This assay deals with HL60 cells. Briefly: Anti-cancer activity test, MTT, HL60 cells. In kind it is cell-based. As to conditions: Homo sapiens, HL-60, culturing for 72 hours. As to the method:
Cell culture medium: Roswell medium RPMI-1640 (+L-glutamine) was added with 10% fetal bovine serum, with 100 units penicillin and 100 μg streptomycin per ml.
Cell culture conditions: 5% CO2, 95% humidity, cultured at 37° C. constant temperature.
2. Cell Inoculation, Drugs Dosing and Culture.
Logarithmic growth phase HL-60, human chronic myeloid leukemia cells (K562), human esophageal squamous cell carcinoma cells (KYSE510), human large cell lung cancer cells (H460) were inoculated into 96-well cell culture plates, 2×10^4 cells per well. Different concentrations of active compounds (dissolved in dimethyl sulfoxide (DMSO) stock solution) were added, so that the final concentration of DMSO was 0.2%, and the control group was DMSO. Each group was repeated three times.
After culturing for 72 hours, 20 µL of thiazolyl blue (MTT) (5 mg/ml, ready for use, dissolved in 1×PBS for cell culture) was added to each well, and incubated at 37° C. for 3 hours.
The 96-well cell culture plates were centrifuged at 1000 rpm for 10 minutes. The supernatant was discarded; 200 μL of DMSO was added to each well and the plate was shaken for 5 minutes.
The absorbance of each well was detected at 570 nm wavelength with a microplate reader, and the IC50 of the compounds was calculated.

One may read the IC50 as the concentration needed to halve the response being measured. A higher IC50 goes with weaker potency.

Regarding `CC(C)C[C@H](NC(=O)CNC(=O)OCC1c2ccccc2-c2ccccc21)B1O[C@@H]2C[C@@H]3C[C@@H](C3(C)C)[C@]2(C)O1` [Compound A51], the 50% inhibitory concentration (IC50) is < 100 nM. Consider `COc1ccc2cc(C(=O)N[C@@H](Cc3c[nH]c4ccccc34)C(=O)N[C@@H](CC(C)C)B3O[C@@H]4C[C@@H]5C[C@@H](C5(C)C)[C@]4(C)O3)ccc2c1` [Compound A52], for which the IC50 was < 100 nM. Then `CC(C)C[C@H](NC(=O)[C@H](C)NC(=O)c1ccc2c(c1)C(=O)N(C1CCC(=O)NC1=O)C2=O)B1O[C@@H]2C[C@@H]3C[C@@H](C3(C)C)[C@]2(C)O1` (some centres unmarked) [Compound A53], with 2000 to 10000 nM; and `CC(C)C[C@H](NC(=O)[C@H](C)NC(=O)c1cccc2c1C(=O)N(C1CCC(=O)NC1=O)C2=O)B1O[C@@H]2C[C@@H]3C[C@@H](C3(C)C)[C@]2(C)O1` (some centres unmarked) [Compound A54], with 2000 to 10000 nM; and `CC(C)C[C@H](NC(=O)[C@H](CC(C)C)NC(=O)CN(c1ccccc1)c1ccccc1)B1O[C@@H]2C[C@@H]3C[C@@H](C3(C)C)[C@]2(C)O1` [Compound A55], with 500 to 2000 nM.

In turn, `CC(C)C[C@H](NC(=O)[C@H](CC(C)C)NC(=O)Cn1c2ccccc2c2cccnc21)B1O[C@@H]2C[C@@H]3C[C@@H](C3(C)C)[C@]2(C)O1` [Compound A56] came in with a half-inhibitory concentration (IC50) of 500 to 2000 nM. For `COc1ccc2c3ccccc3n(CC(=O)N[C@@H](CC(C)C)C(=O)N[C@@H](CC(C)C)B3O[C@@H]4C[C@@H]5C[C@@H](C5(C)C)[C@]4(C)O3)c2c1` [Compound A57], the IC50 is 500 to 2000 nM.

For the compound `CC(C)C[C@H](NC(=O)[C@H](CC(C)C)NC(=O)Cn1c2ccccc2c2cnccc21)B1O[C@@H]2C[C@@H]3C[C@@H](C3(C)C)[C@]2(C)O1` [Compound A58], the 50% inhibitory concentration (IC50) was in the range of 100 to 500 nM. The value for `CC(C)C[C@H](NC(=O)[C@H](CC(C)C)NC(=O)Cn1c2ccc(Cl)cc2c2cc(Cl)ccc21)B1O[C@@H]2C[C@@H]3C[C@@H](C3(C)C)[C@]2(C)O1` [Compound A59] was 500 to 2000 nM; that for `CC(C)C[C@H](NC(=O)[C@H](CC(C)C)NC(=O)Cn1c2ccccc2c2cc(F)ccc21)B1O[C@@H]2C[C@@H]3C[C@@H](C3(C)C)[C@]2(C)O1` [Compound A60] was 500 to 2000 nM; that for `CC(C)C[C@H](NC(=O)[C@H](CC(C)C)NC(=O)Cn1c2ccccc2c2ccc(C#N)cc21)B1O[C@@H]2C[C@@H]3C[C@@H](C3(C)C)[C@]2(C)O1` [Compound A61] was 100 to 500 nM. Turning to `CC(C)C[C@H](NC(=O)[C@H](CC(C)C)NC(=O)Cn1c2ccccc2c2ccc(Br)cc21)B1O[C@@H]2C[C@@H]3C[C@@H](C3(C)C)[C@]2(C)O1` [Compound A62], the IC50 is 100 to 500 nM. Take `CC(C)C[C@H](NC(=O)[C@H](CC(C)C)NC(=O)Cn1c2ccccc2c2ncccc21)B1O[C@@H]2C[C@@H]3C[C@@H](C3(C)C)[C@]2(C)O1` [Compound A63]: the IC50 lay in the range of 100 to 500 nM. Then `CC(C)C[C@H](NC(=O)[C@H](CC(C)C)NC(=O)Cn1c2ncccc2c2cccnc21)B1O[C@@H]2C[C@@H]3C[C@@H](C3(C)C)[C@]2(C)O1` [Compound A64], with 500 to 2000 nM; and `CC(C)C[C@H](NC(=O)[C@H](CC(C)C)NC(=O)OCC1c2ccccc2-c2ccccc21)B(O)O` [Compound A65], with < 100 nM; and `CC(C)C[C@H](NC(=O)[C@H](Cc1c[nH]c2ccccc12)NC(=O)OCc1ccccc1)B(O)O` [Compound A66], with < 100 nM.

Regarding `CC(C)C[C@H](NC(=O)[C@H](Cc1c[nH]c2ccccc12)NC(=O)CC12CC3CC(CC(C3)C1)C2)B(O)O` [Compound A68], the IC50 is 100 to 500 nM. Then `CC(C)C[C@H](NC(=O)[C@H](Cc1c[nH]c2ccccc12)NC(=O)CC1CC1)B(O)O` [Compound A70], with < 100 nM.

Take `CC(C)C[C@H](NC(=O)[C@H](Cc1c[nH]c2ccccc12)NS(=O)(=O)Cc1ccccc1)B(O)O` [Compound A71]: the IC50 was < 100 nM. Then `CC(C)C[C@H](NC(=O)[C@H](Cc1c[nH]c2ccccc12)NC(=O)c1ccncc1)B(O)O` [Compound A72], with 500 to 2000 nM.
